# According to PubChem BioAssay (NCI):
#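 Five concentrations, 48 hours, 96-well plates. The concentration for 50% growth inhibition is given as GI50. The concentration for full growth arrest is given as TGI.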
# Legend:
# Experiment in all cases: NCI-60 cell line screen, 48 h
# SK-MEL-5 melanoma = tested on: SK-MEL-5 melanoma
# NCI-H460 lung = tested on: NCI-H460 lung
# T-47D breast = tested on: T-47D breast
# A549 NSCLC = tested on: A549 NSCLC
# HL-60(TB) leukemia = tested on: HL-60(TB) leukemia
# CCRF-CEM leukemia = tested on: CCRF-CEM leukemia
# UACC-62 melanoma = tested on: UACC-62 melanoma
# PC-3 prostate = tested on: PC-3 prostate
# HCC-2998 colon = tested on: HCC-2998 colon
# SR leukemia = tested on: SR leukemia
# SF-268 CNS = tested on: SF-268 CNS
# SNB-19 CNS = tested on: SNB-19 CNS
# U251 CNS = tested on: U251 CNS
# OVCAR-4 ovarian = tested on: OVCAR-4 ovarian
# HS 578T breast = tested on: HS 578T breast
# SF-295 CNS = tested on: SF-295 CNS
# EKVX NSCLC = tested on: EKVX NSCLC
# SK-MEL-2 melanoma = tested on: SK-MEL-2 melanoma
# UACC-257 melanoma = tested on: UACC-257 melanoma
# SW-620 colon = tested on: SW-620 colon
# BT-549 breast = tested on: BT-549 breast
# K-562 leukemia = tested on: K-562 leukemia
# OVCAR-5 ovarian = tested on: OVCAR-5 ovarian
# OVCAR-3 ovarian = tested on: OVCAR-3 ovarian
# MCF7 breast = tested on: MCF7 breast
# HCT-15 colon = tested on: HCT-15 colon
# SN12C renal = tested on: SN12C renal
# IGROV1 ovarian = tested on: IGROV1 ovarian
# 786-0 renal = tested on: 786-0 renal
# SNB-75 CNS = tested on: SNB-75 CNS
# MOLT-4 leukemia = tested on: MOLT-4 leukemia
# TK-10 renal = tested on: TK-10 renal
# SK-OV-3 ovarian = tested on: SK-OV-3 ovarian
# RXF 393 renal = tested on: RXF 393 renal
# MALME-3M melanoma = tested on: MALME-3M melanoma
# NCI/ADR-RES ovarian = tested on: NCI/ADR-RES ovarian
# HT29 colon = tested on: HT29 colon
# NCI-H23 lung = tested on: NCI-H23 lung
# CAKI-1 renal = tested on: CAKI-1 renal
# HCT-116 colon = tested on: HCT-116 colon
# SF-539 CNS = tested on: SF-539 CNS
# LOX IMVI melanoma = tested on: LOX IMVI melanoma
# A498 renal = tested on: A498 renal
# ACHN renal = tested on: ACHN renal
# MDA-MB-231 breast = tested on: MDA-MB-231 breast
# SK-MEL-28 melanoma = tested on: SK-MEL-28 melanoma
# DU-145 prostate = tested on: DU-145 prostate
# COLO 205 colon = tested on: COLO 205 colon
# NCI-H522 lung = tested on: NCI-H522 lung
# KM12 colon = tested on: KM12 colon
# M14 melanoma = tested on: M14 melanoma
# NCI-H226 lung = tested on: NCI-H226 lung
# RPMI-8226 leukemia = tested on: RPMI-8226 leukemia
# UO-31 renal = tested on: UO-31 renal
# HOP-62 NSCLC = tested on: HOP-62 NSCLC
# HOP-92 NSCLC = tested on: HOP-92 NSCLC
# MDA-MB-435 = tested on: MDA-MB-435
compound,measurement,setting,value
COC1=C(OC)C(=O)C(CCCCCCCCCC[P+](c2ccccc2)(c2ccccc2)c2ccccc2)=C(C)C1=O,GI50,SK-MEL-5 melanoma,71.3 nM
same,TGI,SK-MEL-5 melanoma,222 nM
same,GI50,NCI-H460 lung,266 nM
same,TGI,NCI-H460 lung,1160 nM
same,GI50,T-47D breast,48.1 nM
same,TGI,T-47D breast,1040 nM
same,GI50,A549 NSCLC,337 nM
same,TGI,A549 NSCLC,5140 nM
same,GI50,HL-60(TB) leukemia,59.8 nM
same,TGI,HL-60(TB) leukemia,409 nM
same,GI50,CCRF-CEM leukemia,107 nM
same,TGI,CCRF-CEM leukemia,1180 nM
same,GI50,UACC-62 melanoma,312 nM
same,TGI,UACC-62 melanoma,1730 nM
same,GI50,PC-3 prostate,130 nM
same,TGI,PC-3 prostate,4040 nM
same,GI50,HCC-2998 colon,247 nM
same,TGI,HCC-2998 colon,1380 nM
same,GI50,SR leukemia,> 100000 nM
same,TGI,SR leukemia,> 100000 nM
same,GI50,SF-268 CNS,345 nM
same,TGI,SF-268 CNS,1440 nM
same,GI50,SNB-19 CNS,125 nM
same,TGI,SNB-19 CNS,1300 nM
same,GI50,U251 CNS,104 nM
same,TGI,U251 CNS,1170 nM
same,GI50,OVCAR-4 ovarian,166 nM
same,TGI,OVCAR-4 ovarian,2860 nM
same,GI50,HS 578T breast,204 nM
same,TGI,HS 578T breast,1620 nM
same,GI50,SF-295 CNS,189 nM
same,TGI,SF-295 CNS,585 nM
same,GI50,EKVX NSCLC,137 nM
same,TGI,EKVX NSCLC,4740 nM
same,GI50,SK-MEL-2 melanoma,744 nM
same,TGI,SK-MEL-2 melanoma,3510 nM
same,GI50,UACC-257 melanoma,150 nM
same,TGI,UACC-257 melanoma,931 nM
same,GI50,SW-620 colon,334 nM
same,TGI,SW-620 colon,4910 nM
same,GI50,BT-549 breast,249 nM
same,TGI,BT-549 breast,1090 nM
same,GI50,K-562 leukemia,244 nM
same,GI50,OVCAR-5 ovarian,361 nM
same,TGI,OVCAR-5 ovarian,1410 nM
same,GI50,OVCAR-3 ovarian,219 nM
same,TGI,OVCAR-3 ovarian,1100 nM
same,GI50,MCF7 breast,42 nM
same,TGI,MCF7 breast,532 nM
same,GI50,HCT-15 colon,1330 nM
same,TGI,HCT-15 colon,3460 nM
same,GI50,SN12C renal,213 nM
same,TGI,SN12C renal,1320 nM
same,GI50,IGROV1 ovarian,187 nM
same,TGI,IGROV1 ovarian,1870 nM
same,GI50,786-0 renal,269 nM
same,TGI,786-0 renal,530 nM
same,GI50,SNB-75 CNS,211 nM
same,TGI,SNB-75 CNS,925 nM
same,GI50,MOLT-4 leukemia,376 nM
same,TGI,MOLT-4 leukemia,7780 nM
same,GI50,TK-10 renal,303 nM
same,TGI,TK-10 renal,1380 nM
same,GI50,SK-OV-3 ovarian,255 nM
same,TGI,SK-OV-3 ovarian,869 nM
same,GI50,RXF 393 renal,293 nM
same,TGI,RXF 393 renal,10700 nM
same,GI50,MALME-3M melanoma,206 nM
same,TGI,MALME-3M melanoma,908 nM
same,GI50,NCI/ADR-RES ovarian,3130 nM
same,TGI,NCI/ADR-RES ovarian,20300 nM
same,GI50,HT29 colon,194 nM
same,TGI,HT29 colon,1050 nM
same,GI50,NCI-H23 lung,160 nM
same,TGI,NCI-H23 lung,930 nM
same,GI50,CAKI-1 renal,853 nM
same,TGI,CAKI-1 renal,3270 nM
same,GI50,HCT-116 colon,135 nM
same,TGI,HCT-116 colon,329 nM
same,GI50,SF-539 CNS,256 nM
same,TGI,SF-539 CNS,1280 nM
same,GI50,LOX IMVI melanoma,299 nM
same,TGI,LOX IMVI melanoma,1550 nM
same,GI50,A498 renal,371 nM
same,TGI,A498 renal,1790 nM
same,GI50,ACHN renal,1070 nM
same,TGI,ACHN renal,3720 nM
same,GI50,MDA-MB-231 breast,265 nM
same,TGI,MDA-MB-231 breast,1480 nM
same,GI50,SK-MEL-28 melanoma,475 nM
same,TGI,SK-MEL-28 melanoma,2170 nM
same,GI50,DU-145 prostate,351 nM
same,TGI,DU-145 prostate,1730 nM
same,GI50,COLO 205 colon,99.9 nM
same,TGI,COLO 205 colon,279 nM
same,GI50,NCI-H522 lung,170 nM
same,TGI,NCI-H522 lung,795 nM
same,GI50,KM12 colon,145 nM
same,TGI,KM12 colon,884 nM
same,GI50,M14 melanoma,366 nM
same,TGI,M14 melanoma,1700 nM
same,GI50,NCI-H226 lung,284 nM
same,TGI,NCI-H226 lung,915 nM
same,GI50,RPMI-8226 leukemia,24.7 nM
same,TGI,RPMI-8226 leukemia,143 nM
same,GI50,UO-31 renal,1670 nM
same,TGI,UO-31 renal,3430 nM
same,GI50,HOP-62 NSCLC,194 nM
same,TGI,HOP-62 NSCLC,491 nM
same,GI50,HOP-92 NSCLC,97.7 nM
same,TGI,HOP-92 NSCLC,504 nM
same,GI50,MDA-MB-435,193 nM
same,TGI,MDA-MB-435,1280 nM
